The values that follow are results of earlier work, collected in patent US20100137442A2, “Sustained Release Particulate Oral Dosage Forms of (R)-Baclofen and Methods of Treatment” (XenoPort, Inc., priority 2008, published 2010).

Each structure is given as a SMILES string.

For series [1] the following is noted: animal models.
The conditions of series [2]: oral baclofen.
The conditions of series [3]: oral; 2 mg t.i.d equivalent to racemic baclofen 10 mg t.i.d.
For series [4] the following is noted: dosed either orally or directly into the colon of a mammal.

As for `NCC(CC(=O)O)c1ccc(Cl)cc1` (racemic) [Baclofen, (±)-4-Amino-3-(4-chlorophenyl)butanoic acid], in series [1], the “absorption following administration into the colon” value is recorded as “poorly absorbed”. Besides, the elimination half-life in series [2] is 3 to 4 h. Turning to `NC[C@H](CC(=O)O)c1ccc(Cl)cc1` [(R)-baclofen, R-(−)-baclofen], in series [3], the “potency relative to orally administered racemic baclofen” value is on record as “about 5 fold”. As for `CC(C)C(=O)O[C@@H](OC(=O)NC[C@H](CC(=O)O)c1ccc(Cl)cc1)C(C)C` [Compound (4), (3R)-4-{[(1S)-2-methyl-1-(2-methylpropanoyloxy)propoxy]carbonylamino}-3-(4-chlorophenyl)butanoic acid], in series [4], the “bioavailability as (R)-baclofen” value is listed as “high bioavailability”.
